We go through 10 molecules from patent publication US20250280861A1, “SWEETENER COMPOSITIONS” (Firmenich Incorporated, priority 2022, published 2025).

Like-named read-outs stand apart in the source and are kept apart here.

For orientation: EC50 means the concentration at which the effect is half-maximal.

Test [1] deals with T1, hT1R2/T1R3 taste receptor (Homo sapiens, UniProt Q7RTX0+Q8TE23).
T1 sequence (Q8TE23 20-839): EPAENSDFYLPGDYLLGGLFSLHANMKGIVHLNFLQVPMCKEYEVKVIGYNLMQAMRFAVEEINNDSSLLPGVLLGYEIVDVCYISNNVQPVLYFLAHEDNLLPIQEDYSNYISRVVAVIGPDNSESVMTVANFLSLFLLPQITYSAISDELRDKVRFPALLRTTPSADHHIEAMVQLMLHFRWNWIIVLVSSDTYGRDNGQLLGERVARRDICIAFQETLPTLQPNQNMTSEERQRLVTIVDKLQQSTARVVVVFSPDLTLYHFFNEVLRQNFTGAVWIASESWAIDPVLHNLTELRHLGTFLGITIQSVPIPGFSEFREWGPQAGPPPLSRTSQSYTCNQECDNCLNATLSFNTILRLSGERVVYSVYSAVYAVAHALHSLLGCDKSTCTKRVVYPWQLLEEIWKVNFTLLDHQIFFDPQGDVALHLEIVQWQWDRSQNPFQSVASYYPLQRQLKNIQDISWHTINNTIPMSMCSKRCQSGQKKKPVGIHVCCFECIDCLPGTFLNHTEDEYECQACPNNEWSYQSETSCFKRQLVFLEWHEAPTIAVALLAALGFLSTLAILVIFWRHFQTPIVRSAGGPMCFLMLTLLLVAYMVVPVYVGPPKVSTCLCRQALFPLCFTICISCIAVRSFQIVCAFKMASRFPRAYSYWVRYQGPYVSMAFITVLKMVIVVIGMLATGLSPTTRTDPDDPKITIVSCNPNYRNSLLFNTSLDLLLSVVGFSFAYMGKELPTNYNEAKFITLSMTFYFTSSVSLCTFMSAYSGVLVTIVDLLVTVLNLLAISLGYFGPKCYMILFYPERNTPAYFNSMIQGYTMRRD
T1 sequence (Q7RTX0 21-852): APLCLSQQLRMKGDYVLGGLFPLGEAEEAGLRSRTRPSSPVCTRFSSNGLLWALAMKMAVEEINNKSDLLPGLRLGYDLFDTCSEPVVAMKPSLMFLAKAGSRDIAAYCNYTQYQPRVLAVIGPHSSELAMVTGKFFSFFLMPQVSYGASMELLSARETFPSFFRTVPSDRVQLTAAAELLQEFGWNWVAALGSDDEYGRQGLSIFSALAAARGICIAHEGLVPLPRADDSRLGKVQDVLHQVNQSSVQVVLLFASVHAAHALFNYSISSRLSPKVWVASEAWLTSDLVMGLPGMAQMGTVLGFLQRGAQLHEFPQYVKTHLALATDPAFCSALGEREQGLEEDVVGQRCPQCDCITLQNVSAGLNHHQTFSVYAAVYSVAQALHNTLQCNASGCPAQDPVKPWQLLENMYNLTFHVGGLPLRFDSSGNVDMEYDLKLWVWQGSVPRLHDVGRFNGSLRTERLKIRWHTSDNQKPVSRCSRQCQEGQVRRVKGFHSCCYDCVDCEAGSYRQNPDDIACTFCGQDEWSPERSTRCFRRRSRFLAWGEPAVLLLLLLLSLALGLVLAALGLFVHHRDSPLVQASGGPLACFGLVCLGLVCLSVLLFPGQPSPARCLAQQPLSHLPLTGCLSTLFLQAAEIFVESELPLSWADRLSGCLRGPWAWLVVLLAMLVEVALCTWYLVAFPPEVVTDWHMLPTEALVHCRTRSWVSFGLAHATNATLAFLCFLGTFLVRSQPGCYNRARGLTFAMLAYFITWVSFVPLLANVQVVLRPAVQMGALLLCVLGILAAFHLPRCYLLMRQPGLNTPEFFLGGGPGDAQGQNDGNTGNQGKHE
Put plainly: agonist activity against the hT1R2/T1R3 taste receptor (sweet receptor based assay). Type of test: cell-based. On the procedure: Compounds described in this application show moderate to potent agonist effect on the sweet receptor based assay. Potencies (EC50 values, e.g. see Tables 1-3) for agonist activity were measured against the hT1R2/T1R3 taste receptor. FIG. 1 exemplifies the data generated during the screening to determine EC50 values.

The subject of the next test is panelists. Put plainly: sweet enhancement taste tests (paired comparison, panelists choose the sweeter sample). Type of test: in vivo, human. The settings on record: for HFCS and sucrose sweet enhancement effect: taste tests, pH 2.8, concentration far below its sweetness threshold. On the procedure: Test samples containing either a sweetener (sucrose or high-fructose corn syrup (HFCS)) alone or in combination with a test compound were presented in pairs to a group of panelists who were asked to determine which of the samples was sweeter. Subjects refrained from eating or drinking (except water) for at least 1 hour prior to the test. Subjects rinsed with water several times to clean the mouth. The samples within a paired comparison test were presented in a randomized, counterbalanced order. Panelists had up to a 1 minute delay between taste tests to clear the mouth of any tastes. Binomial probability tables were used to determine the probability of the correct number of responses occurring for each test at alpha-0.05.

Where [2] appears, read: agonist activity, hT1R2/T1R3, read-out: Sweet EC50.
The mark [3] stands for this setting: Study 1: 10 ppm Compound 78 vs 1.5% Sucrose, pH 2.8.
The mark [4] stands for this setting: Study 2: 7 ppm Compound 78 + 6% sucrose vs 8% Sucrose.

In the case of `COCc1cccc(C2CCN(C(COC)C(=O)NCC(C)C)CC2)c1F` (stereo not drawn) [Compound 78, 2-(4-(2-fluoro-3-(methoxymethyl)phenyl)piperidin-1-yl)-N-isobutyl-3-methoxypropanamide], the EC50 in test [1] (setting [2]) turned out to be 1.3 µM. The “Results (which of the samples was sweeter)” value with panelists (setting [3]) is recorded as 9; in the test on panelists (setting [4]) it was 21; with panelists (Study 3: 9 ppm Compound 78 + 6% HFCS vs 8% HFCS), 22. The “HFCS and sucrose sweet enhancement effect” value with panelists was “remarkable HFCS and Sucrose sweet enhancement effect”; with panelists (listed as compound 78), “significant enhancement”. Further, in the test on panelists (test #1, 10 ppm, pH 2.8), the “sweetness compared with 1.5% sucrose” value is “significantly less sweet”. Further, in the test on panelists (test #2, 10 ppm of compound 78+6% sucrose), the “sweetness compared with 8% sucrose” value is reported as “no significant difference in sweetness”.

In the case of `CC(C)CNC(=O)C(C)(C)N1CCC2(CC1)COc1ccccc12` [Compound 122], the EC50 in test [1] (setting [2]) came to 2.5 µM. As to `CC(C)CNC(=O)C(C)(C)N1CCC(O)(c2ccccc2)CC1` [Compound 123], the concentration giving a half-maximal response (EC50) in test [1] (setting [2]) was more than 10 µM. For `CC(C)CNC(=O)C(C)(C)N1CCC(C#N)(c2ccccc2)CC1` [Compound 124], the EC50 in test [1] was determined as 2.2 µM. For `COCCNC(=O)C(C)(C)N1CCC(C#N)(c2cccc(F)c2F)CC1` [Compound 125], the concentration for a half-maximal effect (EC50) in test [1] is more than 10 µM.

In the case of `CC(C)(C)NC(=O)C(C)(C)N1CCC(C#N)(c2cccc(F)c2F)CC1` [Compound 126], in test [1], the midpoint of the response, the EC50, lay at 2 µM.

In test [1], `CCC(C)(C)NC(=O)C(C)(C)N1CCC(C#N)(c2cccc(F)c2F)CC1` [Compound 127] displayed a concentration giving a half-maximal response (EC50) of 1.5 µM.

With `CC(C)(C(=O)NC1CC1)N1CCC(C#N)(c2cccc(F)c2F)CC1` [Compound 128], a half-maximal effect in test [1] (EC50) was put at 1.7 µM. With `COCC(C(=O)NCC(C)C)N1CCC(C#N)(c2cccc(F)c2F)CC1` (stereo not drawn) [Compound 129], it took 4.3 µM to reach a half-maximal effect in test [1] (EC50).

Consider `OC[C@H]1O[C@@](CO)(O[C@H]2O[C@H](CO)[C@@H](O)[C@H](O)[C@H]2O)[C@@H](O)[C@@H]1O` [Sucrose, sucrose, reference compound], for which the entries for the “Results (which of the samples was sweeter)” value in the test on panelists (setting [3]) and in the test on panelists (setting [4]) were 42 and 24, respectively.
